In the NIST ThermoML archive (doi:10.1021/acs.jced.7b00654):

Experiment: xn = mol fraction of the nth substance listed
Conditions: 96.7 kPa, Liquid, Vibrating tube method

CCCCn1cc[n+](C)c1.[Cl-] [1-butyl-3-methylimidazolium chloride] + CC(=O)N(C)C
mass density [kg/m3]
Conditions | x1 = 0.177 | x1 = 0.332 | x1 = 0.428 | x1 = 0.538 | x1 = 0.664 | x1 = 0.816 | x1 = 0.904 | x1 = 1
303.15 K | 980.28 | 1010.24 | 1025.06 | 1038.52 | 1052.4 | 1066.29 | 1073.17 | 1079.41
308.15 K | 976.2 | 1006.61 | 1021.6 | 1035.1 | 1049.19 | 1063.28 | 1070.28 | 1076.58
313.15 K | 972.2 | 1002.98 | 1018.15 | 1031.7 | 1045.95 | 1060.2 | 1067.41 | 1073.78
318.15 K | 968.23 | 999.36 | 1014.71 | 1028.35 | 1042.78 | 1057.21 | 1064.54 | 1070.99
323.15 K | 964.27 | 995.75 | 1011.28 | 1024.85 | 1039.56 | 1054.27 | 1061.66 | 1068.19
328.15 K | 960.32 | 992.15 | 1007.86 | 1021.56 | 1036.44 | 1051.33 | 1058.85 | 1065.36
333.15 K | 956.38 | 988.55 | 1004.46 | 1018.33 | 1033.37 | 1048.41 | 1056.06 | 1062.6
338.15 K | 952.45 | 984.97 | 1001.06 | 1015.16 | 1030.34 | 1045.52 | 1053.26 | 1059.87
343.15 K | 948.53 | 981.38 | 997.67 | 1012.07 | 1027.37 | 1042.67 | 1050.47 | 1057.15
348.15 K | 944.61 | 977.8 | 994.29 | 1009.03 | 1024.45 | 1039.87 | 1047.69 | 1054.42
353.15 K | 940.67 | 974.22 | 990.92 | 1006.06 | 1021.59 | 1037.13 | 1044.91 | 1051.69
